The NIST ThermoML archive (doi:10.1016/j.jct.2015.07.028)
± gives the expanded uncertainty stated by the source.

Experiments:
[1] = molar enthalpy of vaporization or sublimation; settings: 305.12 K; Liquid; Static calorimetry
[2] = for molar entropy: 101.33 kPa, Small (less than 1 g) adiabatic calorimetry; for vapor or sublimation pressure: Closed cell (Static) method; for Triple point temperature: Adiabatic calorimetry

`C=CC(C)(C)O` [2-methyl-3-buten-2-ol] showed a molar enthalpy [1] of 11.2 ± 0.382 kcal/mol, a molar entropy ([2]; 5 K, Crystal 2) of 0.1073 ± 0.025 J/K/mol and a molar entropy ([2]; 10 K, Crystal 2) of 0.901 ± 0.045 J/K/mol. The molar entropy ([2]; 15 K, Crystal 2) was 2.701 ± 0.082 J/K/mol, the molar entropy ([2]; 20 K, Crystal 2) was 5.385 ± 0.13 J/K/mol and the molar entropy ([2]; 25 K, Crystal 2) was 8.631 ± 0.16 J/K/mol. The molar entropy ([2]; 30 K, Crystal 2) was 12.21 ± 0.22 J/K/mol, the molar entropy ([2]; 35 K, Crystal 2) was 15.96 ± 0.25 J/K/mol and the molar entropy ([2]; 40 K, Crystal 2) was 19.77 ± 0.28 J/K/mol. It also gave a molar entropy ([2]; 45 K, Crystal 2) of 23.58 ± 0.31 J/K/mol, a molar entropy ([2]; 50 K, Crystal 2) of 27.38 ± 0.34 J/K/mol and a molar entropy ([2]; 60 K, Crystal 2) of 34.85 ± 0.4 J/K/mol. It also gave a molar entropy ([2]; 70 K, Crystal 2) of 42.16 ± 0.46 J/K/mol, a molar entropy ([2]; 80 K, Crystal 2) of 49.35 ± 0.51 J/K/mol and a molar entropy ([2]; 88.1 K, Crystal 1) of 57.03 ± 0.58 J/K/mol. It also gave a molar entropy ([2]; 88.1 K, Crystal 2) of 55.1 ± 0.56 J/K/mol, a molar entropy ([2]; 90 K, Crystal 1) of 58.35 ± 0.61 J/K/mol and a molar entropy ([2]; 100 K, Crystal 1) of 65.19 ± 0.66 J/K/mol. The molar entropy ([2]; 110 K, Crystal 1) was 71.91 ± 0.72 J/K/mol, the molar entropy ([2]; 120 K, Crystal 1) was 78.52 ± 0.77 J/K/mol and the molar entropy ([2]; 130 K, Crystal 1) was 85.1 ± 0.81 J/K/mol. For the same compound, the molar entropy ([2]; 140 K, Crystal 1) was 91.7 ± 0.86 J/K/mol, the molar entropy ([2]; 150 K, Crystal 1) was 98.37 ± 0.9 J/K/mol and the molar entropy ([2]; 160 K, Crystal 1) was 105.2 ± 1 J/K/mol. The molar entropy ([2]; 170 K, Crystal 1) was 112.2 ± 1 J/K/mol, the molar entropy ([2]; 180 K, Crystal 1) was 119.4 ± 1 J/K/mol and the molar entropy ([2]; 190 K, Crystal 1) was 126.8 ± 1.1 J/K/mol. The molar entropy ([2]; 200 K, Crystal 1) was 134.3 ± 1.2 J/K/mol, the molar entropy ([2]; 210 K, Crystal 1) was 141.9 ± 1.2 J/K/mol and the molar entropy ([2]; 220 K, Crystal 1) was 149.7 ± 1.2 J/K/mol. For the same compound, the molar entropy ([2]; 230 K, Crystal 1) was 157.5 ± 1.4 J/K/mol, the molar entropy ([2]; 240 K, Crystal 1) was 165.4 ± 1.4 J/K/mol and the molar entropy ([2]; 245.03 K, Crystal 1) was 169.4 ± 1.4 J/K/mol. The molar entropy ([2]; 245.03 K, Liquid) was 190.6 ± 1.6 J/K/mol, the molar entropy ([2]; 250 K, Liquid) was 194.6 ± 1.6 J/K/mol and the molar entropy ([2]; 260 K, Liquid) was 202.4 ± 1.7 J/K/mol. The molar entropy ([2]; 270 K, Liquid) was 210.3 ± 1.7 J/K/mol, the molar entropy ([2]; 273.15 K, Liquid) was 212.8 ± 1.8 J/K/mol and the “vapor or sublimation pressure” value ([2]; 279.12 K, Liquid) was 0.7477 ± 0.012 kPa. For the same compound, the “vapor or sublimation pressure” value ([2]; 279.82 K, Liquid) was 0.7934 ± 0.012 kPa, the molar entropy ([2]; 280 K, Liquid) was 218.2 ± 1.8 J/K/mol and the “vapor or sublimation pressure” value ([2]; 280.58 K, Liquid) was 0.8399 ± 0.012 kPa. For the same compound, the “vapor or sublimation pressure” value ([2]; 280.94 K, Liquid) was 0.8608 ± 0.013 kPa, the “vapor or sublimation pressure” value ([2]; 281.64 K, Liquid) was 0.9104 ± 0.014 kPa and the “vapor or sublimation pressure” value ([2]; 283.31 K, Liquid) was 1.026 ± 0.015 kPa. The “vapor or sublimation pressure” value ([2]; 283.94 K, Liquid) was 1.075 ± 0.016 kPa, the “vapor or sublimation pressure” value ([2]; 285.82 K, Liquid) was 1.23 ± 0.02 kPa and the “vapor or sublimation pressure” value ([2]; 286.31 K, Liquid) was 1.271 ± 0.021 kPa. For the same compound, the “vapor or sublimation pressure” value ([2]; 288.03 K, Liquid) was 1.447 ± 0.021 kPa, the “vapor or sublimation pressure” value ([2]; 288.63 K, Liquid) was 1.504 ± 0.021 kPa and the molar entropy ([2]; 290 K, Liquid) was 226.1 ± 1.8 J/K/mol. The “vapor or sublimation pressure” value ([2]; 291.06 K, Liquid) was 1.787 ± 0.024 kPa, the “vapor or sublimation pressure” value ([2]; 291.09 K, Liquid) was 1.78 ± 0.024 kPa and the “vapor or sublimation pressure” value ([2]; 293.17 K, Liquid) was 2.061 ± 0.026 kPa. For the same compound, the “vapor or sublimation pressure” value ([2]; 293.35 K, Liquid) was 2.084 ± 0.026 kPa, the “vapor or sublimation pressure” value ([2]; 295.88 K, Liquid) was 2.467 ± 0.032 kPa and the “vapor or sublimation pressure” value ([2]; 295.92 K, Liquid) was 2.466 ± 0.032 kPa. For the same compound, the “vapor or sublimation pressure” value ([2]; 298.02 K, Liquid) was 2.863 ± 0.036 kPa, the molar entropy ([2]; 298.15 K, Liquid) was 232.6 ± 1.9 J/K/mol and the “vapor or sublimation pressure” value ([2]; 298.84 K, Liquid) was 2.995 ± 0.038 kPa. The molar entropy ([2]; 300 K, Liquid) was 234.1 ± 1.9 J/K/mol, the “vapor or sublimation pressure” value ([2]; 301.36 K, Liquid) was 3.534 ± 0.044 kPa and the “vapor or sublimation pressure” value ([2]; 301.37 K, Liquid) was 3.532 ± 0.044 kPa. For the same compound, the “vapor or sublimation pressure” value ([2]; 303.03 K, Liquid) was 3.938 ± 0.045 kPa, the “vapor or sublimation pressure” value ([2]; 303.4 K, Liquid) was 4.006 ± 0.046 kPa and the “vapor or sublimation pressure” value ([2]; 306.13 K, Liquid) was 4.784 ± 0.057 kPa. The “vapor or sublimation pressure” value ([2]; 306.16 K, Liquid) was 4.776 ± 0.057 kPa, the “vapor or sublimation pressure” value ([2]; 307.86 K, Liquid) was 5.284 ± 0.067 kPa and the “vapor or sublimation pressure” value ([2]; 308.18 K, Liquid) was 5.405 ± 0.068 kPa. The molar entropy ([2]; 310 K, Liquid) was 242 ± 1.9 J/K/mol, the “vapor or sublimation pressure” value ([2]; 311.01 K, Liquid) was 6.393 ± 0.075 kPa and the “vapor or sublimation pressure” value ([2]; 311.02 K, Liquid) was 6.405 ± 0.075 kPa. The “vapor or sublimation pressure” value ([2]; 312.7 K, Liquid) was 7.049 ± 0.082 kPa, the “vapor or sublimation pressure” value ([2]; 313.18 K, Liquid) was 7.252 ± 0.086 kPa and the “vapor or sublimation pressure” value ([2]; 313.25 K, Liquid) was 7.27 ± 0.085 kPa. For the same compound, the “vapor or sublimation pressure” value ([2]; 315.8 K, Liquid) was 8.467 ± 0.087 kPa, the “vapor or sublimation pressure” value ([2]; 315.81 K, Liquid) was 8.457 ± 0.088 kPa and the “vapor or sublimation pressure” value ([2]; 315.98 K, Liquid) was 8.484 ± 0.088 kPa. For the same compound, the “vapor or sublimation pressure” value ([2]; 318.16 K, Liquid) was 9.605 ± 0.11 kPa, the molar entropy ([2]; 320 K, Liquid) was 250 ± 2 J/K/mol and the “vapor or sublimation pressure” value ([2]; 320.59 K, Liquid) was 11.11 ± 0.11 kPa. The “vapor or sublimation pressure” value ([2]; 320.62 K, Liquid) was 11.02 ± 0.12 kPa, the “vapor or sublimation pressure” value ([2]; 320.82 K, Liquid) was 11.12 ± 0.12 kPa and the “vapor or sublimation pressure” value ([2]; 322.89 K, Liquid) was 12.51 ± 0.15 kPa. For the same compound, the “vapor or sublimation pressure” value ([2]; 322.94 K, Liquid) was 12.48 ± 0.14 kPa, the “vapor or sublimation pressure” value ([2]; 325.36 K, Liquid) was 14.31 ± 0.15 kPa and the “vapor or sublimation pressure” value ([2]; 325.39 K, Liquid) was 14.24 ± 0.16 kPa. The “vapor or sublimation pressure” value ([2]; 325.66 K, Liquid) was 14.41 ± 0.16 kPa, the “vapor or sublimation pressure” value ([2]; 328.07 K, Liquid) was 16.34 ± 0.18 kPa and the molar entropy ([2]; 330 K, Liquid) was 257.9 ± 2.1 J/K/mol. It also gave a molar entropy ([2]; 340 K, Liquid) of 265.7 ± 2.1 J/K/mol, a molar entropy ([2]; 350 K, Liquid) of 273.5 ± 2.1 J/K/mol and a molar entropy ([2]; 360 K, Liquid) of 281.1 ± 2.3 J/K/mol. For the same compound, the molar entropy ([2]; 370 K, Liquid) was 288.5 ± 2.3 J/K/mol, the Triple point temperature ([2]; Crystal 1) was 245.03 ± 0.05 K and the Triple point temperature ([2]; Crystal 2) was 88.1 ± 0.3 K.
